In PubChem BioAssay AID248 (DTP/NCI, 2004):
Where “and” joins values, the source holds several entries; their conditions need not be identical. Identical values can stand only once. Inconclusive results and toxic doses are left out. No stated cut-off is given here; in the data, active means T/C of 150% or more; inactive means T/C below 125%.

Tested on: L1210 leukemia ip in BDF1 mice, survival T/C
Assay: NCI In Vivo Anticancer Drug Screen. Data for tumor model L1210 Leukemia (intraperitoneal) in B6D2F1 (BDF1) mice
Settings: endpoint: mean survival time, higher = longer survival
Summary of the method: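 In this screen, tumor-bearing mice given compound are compared to those given vehicle, and their survival values are reported as a treated-to-control quotient.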

[1] = dose: 50.0 mg/kg/injection, schedule: Q04DX002 (ip), vehicle: Klucel (hydroxypropylcellulose) (HPC)
[2] = dose: 100.0 mg/kg/injection, schedule: Q04DX002 (ip), vehicle: Klucel (hydroxypropylcellulose) (HPC)
[3] = dose: 100.0 mg/kg/injection, schedule: Q01DX001 (ip), vehicle: carboxymethylcellulose (CMC)
[4] = dose: 200.0 mg/kg/injection, schedule: Q01DX001 (ip), vehicle: carboxymethylcellulose (CMC)
[5] = dose: 400.0 mg/kg/injection, schedule: Q01DX001 (ip), vehicle: carboxymethylcellulose (CMC)
[6] = dose: 100.0 mg/kg/injection, schedule: Q01DX009 (ip), vehicle: Klucel (hydroxypropylcellulose) (HPC)
[7] = dose: 100.0 mg/kg/injection, schedule: Q04DX003 (ip), vehicle: Klucel (hydroxypropylcellulose) (HPC)
[8] = dose: 200.0 mg/kg/injection, schedule: Q01DX009 (ip), vehicle: Klucel (hydroxypropylcellulose) (HPC)
[9] = dose: 200.0 mg/kg/injection, schedule: Q04DX003 (ip), vehicle: Klucel (hydroxypropylcellulose) (HPC)
[10] = dose: 400.0 mg/kg/injection, schedule: Q01DX009 (ip), vehicle: Klucel (hydroxypropylcellulose) (HPC)
[11] = dose: 400.0 mg/kg/injection, schedule: Q04DX003 (ip), vehicle: Klucel (hydroxypropylcellulose) (HPC)
[12] = dose: 100.0 mg/kg/injection, schedule: Q01DX009 (ip), vehicle: saline with Tween-80
[13] = dose: 200.0 mg/kg/injection, schedule: Q01DX009 (ip), vehicle: saline with Tween-80
[14] = dose: 400.0 mg/kg/injection, schedule: Q01DX009 (ip), vehicle: saline with Tween-80

Measured: T/C

CCOC(=O)/C(O)=C\c1nnccc1Cl
inactive: dose: 56.25 mg/kg/injection, schedule: Q04DX002 (ip), vehicle: saline 96 % of control | dose: 112.5 mg/kg/injection, schedule: Q04DX002 (ip), vehicle: saline 104 % of control | dose: 225.0 mg/kg/injection, schedule: Q04DX002 (ip), vehicle: saline 101 % of control

COc1ccc(/C=C/C2=CC(=O)CC(c3ccc(OC)c(OC)c3)C2)cc1OC (configuration not stated)
inactive: dose: 100.0 mg/kg/injection, schedule: Q04DX002 (ip), vehicle: saline with Tween-80 102 % of control | dose: 200.0 mg/kg/injection, schedule: Q04DX002 (ip), vehicle: saline with Tween-80 102 % of control | dose: 400.0 mg/kg/injection, schedule: Q04DX002 (ip), vehicle: saline with Tween-80 105 % of control

O=C1C=CC2C3C=CC(CC3)C12 (configuration not stated)
inactive: [1] 89 % of control | [2] 93 % of control

COc1cc(CC(C(=O)OC(C)(C)C)C(=O)OC(C)(C)C)cc(OC)c1OC
inactive: dose: 50.0 mg/kg/injection, schedule: Q01DX001 (ip), vehicle: carboxymethylcellulose (CMC) 101 % of control | [3] 97 % of control | [4] 97 % of control | [5] 109 % of control

CCCCC(C(=O)OCC)C(CCC1CCCCC1)(C(=O)OCC)C(=O)OCC (configuration not stated)
inactive: [6] 95 % of control | [7] 96 % of control | [8] 110 % of control | [9] 106 % of control | [10] 105 % of control | [11] 95 % of control

CC(N)C(=O)NC(C(=O)O)C(C)C (configuration not stated)
inactive: dose: 100.0 mg/kg/injection, schedule: Q04DX002 (ip), vehicle: saline 101 % of control and 98 % of control | dose: 200.0 mg/kg/injection, schedule: Q04DX002 (ip), vehicle: saline 101 % of control and 95 % of control | dose: 400.0 mg/kg/injection, schedule: Q04DX002 (ip), vehicle: saline 96 % of control and 95 % of control

CC12CCC3c4cc(N)c(O)cc4CCC3C1CCC2=O (configuration not stated)
inactive: [2] 92 % of control | dose: 200.0 mg/kg/injection, schedule: Q04DX002 (ip), vehicle: Klucel (hydroxypropylcellulose) (HPC) 99 % of control | dose: 400.0 mg/kg/injection, schedule: Q04DX002 (ip), vehicle: Klucel (hydroxypropylcellulose) (HPC) 101 % of control

CC(Cl)CNC(=O)Nc1cccc2c1CCCC2 (configuration not stated)
inactive: dose: 50.0 mg/kg/injection, schedule: Q01DX001 (ip), vehicle: saline with Tween-80 103 % of control | dose: 100.0 mg/kg/injection, schedule: Q01DX001 (ip), vehicle: saline with Tween-80 100 % of control | [12] 96 % of control | dose: 200.0 mg/kg/injection, schedule: Q01DX001 (ip), vehicle: saline with Tween-80 94 % of control | [13] 95 % of control | dose: 400.0 mg/kg/injection, schedule: Q01DX001 (ip), vehicle: saline with Tween-80 91 % of control | [14] 90 % of control

CCOC(=S)Sc1ccc2c(c1)-c1ccc(F)cc1C2=O
inactive: [3] 111 % of control | [4] 95 % of control | [5] 98 % of control

CCCCC(C)C(=O)Nc1cccc(O)c1 (configuration not stated)
inactive: [12] 92 % of control | [13] 92 % of control | [14] 90 % of control

CCOC(=O)c1ccc[n+](CCCl)c1
inactive: dose: 10.0 mg/kg/injection, schedule: Q01DX Z (ip), vehicle: saline 98 % of control | dose: 30.0 mg/kg/injection, schedule: Q01DX Z (ip), vehicle: saline 97 % of control | dose: 100.0 mg/kg/injection, schedule: Q01DX Z (ip), vehicle: saline 90 % of control

CCOC(=O)C(NC(N)=O)C(=O)OCC
inactive: [6] 95 % of control | [7] 95 % of control | [8] 101 % of control | [9] 97 % of control | [10] 101 % of control | [11] 104 % of control

CCN(CC)CCOC(=O)Nc1ccc(Cl)cc1
inactive: [6] 93 % of control | dose: 100.0 mg/kg/injection, schedule: Q04DX003 (ip), vehicle: saline 98 % of control | [8] 93 % of control | dose: 200.0 mg/kg/injection, schedule: Q04DX003 (ip), vehicle: saline 98 % of control | [10] 98 % of control

Cn1cc(/C=C/C(N)=O)c2nccnc21
inactive: dose: 1.56 mg/kg/injection, schedule: Q01DX009 (ip), vehicle: water 94 % of control | dose: 3.12 mg/kg/injection, schedule: Q01DX009 (ip), vehicle: water 92 % of control | dose: 6.25 mg/kg/injection, schedule: Q01DX009 (ip), vehicle: water 107 % of control | dose: 12.5 mg/kg/injection, schedule: Q01DX009 (ip), vehicle: water 103 % of control | dose: 25.0 mg/kg/injection, schedule: Q01DX009 (ip), vehicle: water 100 % of control and 110 % of control

C#CCN(Cc1ccccc1)C(=O)Nc1cccc(Cl)c1
inactive: dose: 100.0 mg/kg/injection, schedule: Q04DX003 (ip), vehicle: other 106 % of control | dose: 200.0 mg/kg/injection, schedule: Q04DX003 (ip), vehicle: other 98 % of control | dose: 400.0 mg/kg/injection, schedule: Q04DX003 (ip), vehicle: other 96 % of control

COc1cc(C=Nc2ccc(Oc3ccc(Cl)cc3)cc2)cc(OC)c1OC
inactive: [6] 102 % of control | [8] 96 % of control

O=S(=O)(/N=C1C=C(N2CCOCC2)/C(=N/S(=O)(=O)c2ccccc2)C=C/1N1CCOCC1)c1ccccc1
inactive: dose: 75.0 mg/kg/injection, schedule: Q04DX003 (ip), vehicle: Klucel (hydroxypropylcellulose) (HPC) 97 % of control | dose: 150.0 mg/kg/injection, schedule: Q04DX003 (ip), vehicle: Klucel (hydroxypropylcellulose) (HPC) 89 % of control | dose: 300.0 mg/kg/injection, schedule: Q04DX003 (ip), vehicle: Klucel (hydroxypropylcellulose) (HPC) 100 % of control

CCCC1OCC(C)C(C)O1 (configuration not stated)
inactive: dose: 50.0 mg/kg/injection, schedule: Q01DX009 (ip), vehicle: acetone 101 % of control | dose: 100.0 mg/kg/injection, schedule: Q01DX009 (ip), vehicle: acetone 98 % of control | dose: 100.0 mg/kg/injection, schedule: Q04DX003 (ip), vehicle: acetone 106 % of control | dose: 200.0 mg/kg/injection, schedule: Q01DX009 (ip), vehicle: acetone 112 % of control | dose: 200.0 mg/kg/injection, schedule: Q04DX003 (ip), vehicle: acetone 109 % of control | dose: 400.0 mg/kg/injection, schedule: Q04DX003 (ip), vehicle: acetone 123 % of control

Cc1c(C)c(O)c(Br)c(C)c1O (tested in a mixture with another compound)
inactive: dose: 100.0 mg/kg/injection, schedule: Q04DX003 (ip), vehicle: saline with Tween-80 89 % of control

CC(C)=CCC(N)CC=C(C)C
inactive: dose: 12.5 mg/kg/injection, schedule: Q01DX009 (ip), vehicle: Klucel (hydroxypropylcellulose) (HPC) 91 % of control | dose: 25.0 mg/kg/injection, schedule: Q01DX009 (ip), vehicle: Klucel (hydroxypropylcellulose) (HPC) 102 % of control | dose: 25.0 mg/kg/injection, schedule: Q04DX002 (ip), vehicle: Klucel (hydroxypropylcellulose) (HPC) 112 % of control | dose: 50.0 mg/kg/injection, schedule: Q01DX009 (ip), vehicle: Klucel (hydroxypropylcellulose) (HPC) 106 % of control | [1] 105 % of control

CSc1ccc(NC(=O)COc2ccccc2)cc1
inactive: [6] 102 % of control | [8] 98 % of control | [10] 98 % of control

O=C(O)C1CSC(c2ccccc2)N1 (configuration not stated)
inactive: dose: 100.0 mg/kg/injection, schedule: Q01DX001 (ip), vehicle: other 105 % of control | dose: 176.0 mg/kg/injection, schedule: Q01DX001 (ip), vehicle: other 109 % of control and 91 % of control | dose: 200.0 mg/kg/injection, schedule: Q01DX001 (ip), vehicle: other 102 % of control | dose: 267.0 mg/kg/injection, schedule: Q01DX001 (ip), vehicle: other 96 % of control and 90 % of control | dose: 600.0 mg/kg/injection, schedule: Q01DX001 (ip), vehicle: other 101 % of control and 90 % of control

CCOC(=O)c1cn(C2OC(COC(=O)c3ccccc3)C(OC(=O)c3ccccc3)C2OC(=O)c2ccccc2)c(=O)nc1Nc1ccccc1Br (configuration not stated)
inactive: dose: 100.0 mg/kg/injection, schedule: Q01DX005 (ip), vehicle: saline 97 % of control | dose: 200.0 mg/kg/injection, schedule: Q01DX005 (ip), vehicle: saline 97 % of control

O=C(O)C(O)C(O)C(O)C(O)C(O)CO.[Cu+2] (configuration not stated)
inactive: dose: 30.0 mg/kg/injection, schedule: Q01DX001 (ip), vehicle: saline 91 % of control
